Data reported in BigSolDB 2.1.

NCC1(CC(=O)O)CCCCC1.O
in water
Settings | solubility (mole fraction)
283.15 K | 0.0093
288.15 K | 0.0106
293.15 K | 0.0116
298.15 K | 0.0124
303.15 K | 0.0137
308.15 K | 0.0152
313.15 K | 0.0168
318.15 K | 0.0189
323.15 K | 0.0222

NCC1(CC(=O)O)CCCCC1
solubility (mole fraction)
Settings | 283.15 K | 288.15 K | 293.15 K | 298.15 K | 303.15 K | 308.15 K | 313.15 K | 318.15 K | 323.15 K
in ethanol | 0.00134 | 0.00153 | 0.0017 | 0.00187 | 0.00224 | 0.00243 | 0.00267 | 0.003 | 0.00329
in methanol | 0.00718 | 0.00795 | 0.00878 | 0.00943 | 0.0107 | 0.0117 | 0.0127 | 0.014 | 0.016
